For the molecule `*CC=C(C*)[Si](C)(OC(C)C)OC(C)C` (repeat unit), the CH4 permeability amounted to 63.2 Barrer, the CO2 permeability stood at 345 Barrer, the N2 permeability amounted to 25.4 Barrer and the O2 permeability amounted to 69.2 Barrer.
Turning to `*c1ccc(-c2nc3cc(-c4ccc5[nH]c(*)nc5c4)ccc3[nH]2)c(Br)c1` (repeat unit), the H2 permeability worked out at 0.38 Barrer and the O2 permeability stood at 0.006 Barrer.
Molecule `*c1ccc(Cc2ccc(N3C(=O)c4ccc(Sc5ccc6c(c5)C(=O)N(*)C6=O)cc4C3=O)cc2)cc1` (repeat unit) gave an H2 permeability of 5.43 Barrer, an N2 permeability of 0.027 Barrer and an O2 permeability of 0.246 Barrer.
Take `*C=C(*)C(C)(C)C` (repeat unit): the CH4 permeability was 85 Barrer, the CO2 permeability was found to be 560 Barrer, the N2 permeability came out at 43 Barrer and the O2 permeability is 130 Barrer.
Molecule `*CCC(F)(Cl)C(*)(F)F` (repeat unit) yielded a CO2 permeability of 0.607 Barrer, an N2 permeability of 0.061 Barrer and an O2 permeability of 0.152 Barrer.
As for `*C(C)=C(*)CCC` (repeat unit), the CH4 permeability came out at 21 Barrer, the CO2 permeability is 120 Barrer, the H2 permeability came to 160 Barrer and the N2 permeability is 12 Barrer. The O2 permeability was found to be 39 Barrer.
The corresponding values for `*OC(=O)Oc1c(Br)cc(C(C)(C)c2cc(Br)c(*)c(Br)c2)cc1Br` (repeat unit) are 0.123 Barrer, 4.21 Barrer, 43 Barrer, 0.191 Barrer and 1.43 Barrer.
On to `*Oc1c(Br)cc(C(C)(C)c2cc(Br)c(OC(=O)c3cc(C(*)=O)cc(C(C)(C)C)c3)c(Br)c2)cc1Br` (repeat unit), for which the CH4 permeability worked out at 0.853 Barrer, the CO2 permeability worked out at 21.5 Barrer, the H2 permeability is 54 Barrer and the N2 permeability is 0.89 Barrer. Also, the O2 permeability was found to be 5.63 Barrer.
Regarding `*C1C(*)C2CC1C1C[CH]([Ge]([CH3])([CH3])[CH3])C21` (repeat unit), the CH4 permeability was 620 Barrer.
With `*c1cccc(C(c2cccc(-c3nnc(*)n3-c3ccccc3)c2)(C(F)(F)F)C(F)(F)F)c1` (repeat unit), the CH4 permeability came to 4.66 Barrer, the CO2 permeability was 132 Barrer, the N2 permeability is 5.93 Barrer and the O2 permeability was found to be 26.1 Barrer.
Consider `*c1c(C)cc(-c2cc(C)c(-n3c(=O)c4cc5oc6cc7c(cc6oc5cc4c3=O)C3(CC(C)(C)c4cc5oc6cc8c(=O)n(*)c(=O)c8cc6oc5cc43)CC7(C)C)c3ccccc23)c2ccccc12` (repeat unit), for which the CH4 permeability was determined as 215 Barrer, the CO2 permeability turned out to be 2980 Barrer, the H2 permeability was found to be 1310 Barrer and the N2 permeability was found to be 130 Barrer. For the same molecule, the O2 permeability came out at 432 Barrer.
The corresponding values for `*C(=C(*)c1ccc2c(c1)C(C)(C)c1ccccc1-2)c1ccc(F)cc1` (repeat unit) are 11000 Barrer, 21000 Barrer, 11000 Barrer, 4700 Barrer and 6200 Barrer.
`*c1ccc(C2(c3ccc(N4C(=O)c5ccc(C(c6ccc7c(c6)C(=O)N(*)C7=O)(C(F)(F)F)C(F)(F)F)cc5C4=O)cc3)c3ccccc3-c3ccccc32)cc1` (repeat unit): the CH4 permeability is 1.96 Barrer, the CO2 permeability is 58.9 Barrer and the N2 permeability came to 3.3 Barrer.
`*CC(*)c1ccc(S(=O)(=O)[O-])cc1` (repeat unit) had a CH4 permeability of 0.119 Barrer, a CO2 permeability of 4.15 Barrer, an H2 permeability of 10.8 Barrer and an N2 permeability of 0.101 Barrer. Also, the O2 permeability was determined as 0.845 Barrer.
The molecule `*Oc1ccc(S(=O)(=O)c2ccc(Oc3ccc(C(C)(C)c4ccc(*)cc4)cc3)cc2)cc1` (repeat unit) had a CH4 permeability of 0.258 Barrer, a CO2 permeability of 5.6 Barrer, an H2 permeability of 14 Barrer and an N2 permeability of 0.249 Barrer. The same molecule gave an O2 permeability of 1.4 Barrer.
The molecule `*c1ccc(-c2ccc(-n3c(=O)c4cc5oc6cc7c(cc6oc5cc4c3=O)C3(CC(C)(C)c4cc5oc6cc8c(=O)n(*)c(=O)c8cc6oc5cc43)CC7(C)C)cc2C(F)(F)F)c(C(F)(F)F)c1` (repeat unit) yielded a CH4 permeability of 20 Barrer, a CO2 permeability of 420 Barrer, an H2 permeability of 300 Barrer and an N2 permeability of 16 Barrer. The same molecule gave an O2 permeability of 64 Barrer.
`*CC=C(C*)[Si](OC(C)C)(OC(C)C)OC(C)C` (repeat unit): the CH4 permeability came to 263 Barrer, the CO2 permeability was determined as 1230 Barrer, the N2 permeability came out at 109 Barrer and the O2 permeability was determined as 247 Barrer.
In turn, `*c1ccc2c(c1)C(=O)n1c-2nc2ccc(Oc3ccc4c(c3)nc3n4C(=O)c4ccc(C(*)(C(F)(F)F)C(F)(F)F)cc4-3)cc21` (repeat unit) displayed an H2 permeability of 54.9 Barrer, an N2 permeability of 0.81 Barrer and an O2 permeability of 5.04 Barrer.
As to `*Oc1c(Br)cc(C(c2cc(Br)c(OC(*)=O)c(Br)c2)(C(F)(F)F)C(F)(F)F)cc1Br` (repeat unit), the CH4 permeability is 0.89 Barrer, the CO2 permeability came to 32 Barrer, the H2 permeability is 10.6 Barrer and the N2 permeability is 1.8 Barrer. Also, the O2 permeability stood at 9.7 Barrer.
`*c1c(C)cc(-c2cc(C)c(-c3cc(C)c(*)c(C)c3)cc2C)cc1C` (repeat unit) displayed a CH4 permeability of 15 Barrer, a CO2 permeability of 360 Barrer, an H2 permeability of 350 Barrer and an N2 permeability of 16.5 Barrer. The molecule also had an O2 permeability of 67 Barrer.
`*Nc1ccc(Cc2ccc(NC(=O)CN3C(=O)c4ccc(C(*)=O)cc4C3=O)cc2)cc1` (repeat unit): the CH4 permeability turned out to be 0.01 Barrer, the CO2 permeability came to 0.264 Barrer, the N2 permeability was 0.017 Barrer and the O2 permeability turned out to be 0.065 Barrer.
`*C(=C(*)c1ccc([Si](C)(C)CCCCCCCC)cc1)c1ccc(C(C)(C)C)cc1` (repeat unit) returned a CO2 permeability of 100 Barrer, an N2 permeability of 7.5 Barrer and an O2 permeability of 26 Barrer.
`*c1ccc(C(C)(C)c2cccc(N3C(=O)c4ccc(C(c5ccc6c(c5)C(=O)N(*)C6=O)(C(F)(F)F)C(F)(F)F)cc4C3=O)c2)cc1` (repeat unit) displayed a CH4 permeability of 0.217 Barrer, a CO2 permeability of 10.7 Barrer, an H2 permeability of 38.2 Barrer and an N2 permeability of 0.473 Barrer. Also, the O2 permeability was found to be 2.89 Barrer.
Consider `*c1ccc(-c2ccc(N3C(=O)c4ccc([Si](C)(C)c5ccc6c(c5)C(=O)N(*)C6=O)cc4C3=O)c(C)c2)cc1C` (repeat unit), for which the H2 permeability stood at 10.9 Barrer, the N2 permeability stood at 0.094 Barrer and the O2 permeability stood at 0.663 Barrer.
`*Cc1ccc(C*)c(CC)c1` (repeat unit) came in with a CO2 permeability of 1.89 Barrer, an H2 permeability of 4.31 Barrer, an N2 permeability of 0.0904 Barrer and an O2 permeability of 0.5 Barrer.
Turning to `*C(=C(*)c1ccc(-c2ccc([Si](C)(C)C)cc2)cc1)c1ccccc1` (repeat unit), the CH4 permeability came to 450 Barrer, the CO2 permeability stood at 2200 Barrer, the H2 permeability was 810 Barrer and the N2 permeability is 160 Barrer. In addition, the O2 permeability came out at 390 Barrer.
The like results for `*c1ccc(Oc2ccc(C(c3ccc(Oc4ccc(N5C(=O)c6ccc(C(c7ccc8c(c7)C(=O)N(*)C8=O)(C(F)(F)F)C(F)(F)F)cc6C5=O)cc4C(F)(F)F)cc3)(C(F)(F)F)C(F)(F)F)cc2)c(C(F)(F)F)c1` (repeat unit) were, in that order, 0.703 Barrer, 22.8 Barrer, 55.4 Barrer, 1.3 Barrer and 6.5 Barrer.
Turning to `*Oc1c(C)cc(*)c([N+](=O)[O-])c1C` (repeat unit), the CH4 permeability was determined as 2.4 Barrer, the CO2 permeability turned out to be 40.4 Barrer, the N2 permeability came out at 2.4 Barrer and the O2 permeability was 11.5 Barrer.
In turn, `*C(=C(*)c1ccc([Si](c2ccccc2)(c2ccccc2)c2ccccc2)cc1)c1ccccc1` (repeat unit) had a CH4 permeability of 5.58 Barrer, a CO2 permeability of 78.8 Barrer, an H2 permeability of 51.7 Barrer and an N2 permeability of 2.78 Barrer. The same molecule showed an O2 permeability of 12.1 Barrer.
`*O[Si](C)(C)CCCCCC[Si](*)(C)C` (repeat unit) gave a CH4 permeability of 395 Barrer, a CO2 permeability of 1310 Barrer and an O2 permeability of 265 Barrer.
In turn, `*CC(*)c1ccc(C[Si](C)(C)C)cc1` (repeat unit) displayed a CH4 permeability of 7.8 Barrer, a CO2 permeability of 79.8 Barrer, an H2 permeability of 54 Barrer and an O2 permeability of 19.9 Barrer.
`*c1ccc(Oc2ccc(C(C)(C)c3ccc(Oc4ccc(N5C(=O)c6ccc(-c7ccc8c(c7)C(=O)N(*)C8=O)cc6C5=O)cc4)cc3)cc2)cc1` (repeat unit) yielded a CH4 permeability of 0.0846 Barrer, a CO2 permeability of 2.8 Barrer, an N2 permeability of 0.0938 Barrer and an O2 permeability of 0.596 Barrer.
The molecule `*CN1CN(*)Cc2cc3c(cc21)C1c2ccccc2C3c2cc(*)c(*)cc21` (repeat unit) yielded a CH4 permeability of 562 Barrer, a CO2 permeability of 6830 Barrer, an H2 permeability of 6390 Barrer and an N2 permeability of 409 Barrer. For the same molecule, the O2 permeability stood at 1900 Barrer.
As for `*c1ccc(Cc2ccc(N3C(=O)c4ccc(-c5ccc6c(c5)C(=O)N(*)C6=O)cc4C3=O)c(C)c2)cc1C` (repeat unit), the CH4 permeability worked out at 0.0278 Barrer, the CO2 permeability stood at 1.41 Barrer, the N2 permeability came to 0.0483 Barrer and the O2 permeability is 0.369 Barrer.
Consider `*C(=C(*)c1ccc2c(c1)C1(CC1)c1ccccc1-2)c1ccccc1` (repeat unit), for which the CH4 permeability came to 810 Barrer, the CO2 permeability was 3200 Barrer, the H2 permeability was 1400 Barrer and the N2 permeability was 400 Barrer. For the same molecule, the O2 permeability came out at 660 Barrer.

The values above are taken from a polymer gas permeability compilation.
